In brackets after ≈: the same amount, converted by molar mass.
Tests used:
Assay type in all cases: functional
[1] = test system: Mycobacterium tuberculosis; assay: Antimycobacterial activity against clinical isolates of multidrug resistant/extensively drug resistant Mycobacterium tuberculosis Praha 1 after 14 days by micromethod; conditions: Praha 1, 336 h
[2] = test system: Mycobacterium tuberculosis; assay: Antimycobacterial activity against clinical isolates of multidrug resistant/extensively drug resistant Mycobacterium tuberculosis 9449/2007 after 21 days by micromethod; conditions: 9449/2007, 504 h
[3] = test system: Mycobacterium tuberculosis; assay: Antimycobacterial activity against clinical isolates of multidrug resistant/extensively drug resistant Mycobacterium tuberculosis Praha 4 after 14 days by micromethod; conditions: Praha 4, 336 h
[4] = test system: Mycobacterium tuberculosis; assay: Antimycobacterial activity against clinical isolates of multidrug resistant/extensively drug resistant Mycobacterium tuberculosis Praha 4 after 21 days by micromethod; conditions: Praha 4, 504 h
[5] = test system: Mycobacterium tuberculosis; assay: Antimycobacterial activity against clinical isolates of multidrug resistant/extensively drug resistant Mycobacterium tuberculosis 9449/2007 after 14 days by micromethod; conditions: 9449/2007, 336 h
[6] = test system: Mycobacterium tuberculosis; assay: Antimycobacterial activity against clinical isolates of multidrug resistant/extensively drug resistant Mycobacterium tuberculosis 7357/1998 after 21 days by micromethod; conditions: 7357/1998, 504 h
[7] = test system: Mycobacterium tuberculosis; assay: Antimycobacterial activity against clinical isolates of multidrug resistant/extensively drug resistant Mycobacterium tuberculosis 7357/1998 after 14 days by micromethod; conditions: 7357/1998, 336 h
[8] = test system: Mycobacterium tuberculosis; assay: Antimycobacterial activity against clinical isolates of multidrug resistant/extensively drug resistant Mycobacterium tuberculosis 234/2005 after 21 days by micromethod; conditions: 234/2005, 504 h
[9] = test system: Mycobacterium tuberculosis; assay: Antimycobacterial activity against clinical isolates of multidrug resistant/extensively drug resistant Mycobacterium tuberculosis Praha 131 after 14 days by micromethod; conditions: Praha 131, 336 h
[10] = test system: Mycobacterium tuberculosis; assay: Antimycobacterial activity against clinical isolates of multidrug resistant/extensively drug resistant Mycobacterium tuberculosis Praha 131 after 21 days by micromethod; conditions: Praha 131, 504 h
[11] = test system: Mycobacterium tuberculosis; assay: Antimycobacterial activity against clinical isolates of multidrug resistant/extensively drug resistant Mycobacterium tuberculosis 234/2005 after 14 days by micromethod; conditions: 234/2005, 336 h
[12] = test system: Mycobacterium tuberculosis; assay: Antimycobacterial activity against clinical isolates of multidrug resistant/extensively drug resistant Mycobacterium tuberculosis Praha 1 after 21 days by micromethod; conditions: Praha 1, 504 h
[13] = test system: Mycobacterium tuberculosis; assay: Antimycobacterial activity against clinical isolates of multidrug resistant/extensively drug resistant Mycobacterium tuberculosis 8666/2010 after 21 days by micromethod; conditions: 8666/2010, 504 h
[14] = test system: Mycobacterium tuberculosis; assay: Antimycobacterial activity against clinical isolates of multidrug resistant/extensively drug resistant Mycobacterium tuberculosis 8666/2010 after 14 days by micromethod; conditions: 8666/2010, 336 h

| Structure (SMILES) | MIC [1] [µM] | MIC [2] [µM] | MIC [3] [µM] | MIC [4] [µM] | MIC [5] [µM] | MIC [6] [µM] | MIC [7] [µM] | MIC [8] [µM] | MIC [9] [µM] | MIC [10] [µM] | MIC [11] [µM] | MIC [12] [µM] | MIC [13] [µM] | MIC [14] [µM] |
| --- | --- | --- | --- | --- | --- | --- | --- | --- | --- | --- | --- | --- | --- | --- |
| O=[N+]([O-])c1cc(-c2nnn(CCCSc3nnnn3-c3ccc(Br)cc3)n2)cc([N+](=O)[O-])c1 | 0.25 (≈ 0.133 µg/mL) | 0.25 (≈ 0.133 µg/mL) | 0.25 (≈ 0.133 µg/mL) | 0.25 (≈ 0.133 µg/mL) | 0.25 (≈ 0.133 µg/mL) | 0.25 (≈ 0.133 µg/mL) | 0.25 (≈ 0.133 µg/mL) | 0.25 (≈ 0.133 µg/mL) | 0.25 (≈ 0.133 µg/mL) | 0.25 (≈ 0.133 µg/mL) | 0.25 (≈ 0.133 µg/mL) | 0.25 (≈ 0.133 µg/mL) | – | – |
| O=[N+]([O-])c1cc(-c2nnn(CCCCSc3nnnn3-c3ccc(Br)cc3)n2)cc([N+](=O)[O-])c1 | 0.25 (≈ 0.137 µg/mL) | 0.5 (≈ 0.274 µg/mL) | 0.25 (≈ 0.137 µg/mL) | 0.25 (≈ 0.137 µg/mL) | 0.25 (≈ 0.137 µg/mL) | 0.25 (≈ 0.137 µg/mL) | 0.25 (≈ 0.137 µg/mL) | 0.25 (≈ 0.137 µg/mL) | 0.25 (≈ 0.137 µg/mL) | 0.25 (≈ 0.137 µg/mL) | 0.25 (≈ 0.137 µg/mL) | 0.25 (≈ 0.137 µg/mL) | – | – |
| O=[N+]([O-])c1cc(-c2nnn(Cc3cccc(Br)c3)n2)cc([N+](=O)[O-])c1 | 0.5 (≈ 0.203 µg/mL) | 0.5 (≈ 0.203 µg/mL) | 0.5 (≈ 0.203 µg/mL) | 1 (≈ 0.405 µg/mL) | 0.25 (≈ 0.101 µg/mL) | 0.5 (≈ 0.203 µg/mL) | 0.5 (≈ 0.203 µg/mL) | 0.5 (≈ 0.203 µg/mL) | 0.5 (≈ 0.203 µg/mL) | 1 (≈ 0.405 µg/mL) | 0.25 (≈ 0.101 µg/mL) | 0.5 (≈ 0.203 µg/mL) | 0.5 (≈ 0.203 µg/mL) | 0.25 (≈ 0.101 µg/mL) |
| O=[N+]([O-])c1cc(-c2nnn(CSc3nnnn3-c3ccc(Br)cc3)n2)cc([N+](=O)[O-])c1 | 0.03 (≈ 0.0152 µg/mL) | 0.03 (≈ 0.0152 µg/mL) | 0.03 (≈ 0.0152 µg/mL) | 0.03 (≈ 0.0152 µg/mL) | 0.03 (≈ 0.0152 µg/mL) | 0.03 (≈ 0.0152 µg/mL) | 0.03 (≈ 0.0152 µg/mL) | 0.03 (≈ 0.0152 µg/mL) | 0.03 (≈ 0.0152 µg/mL) | 0.03 (≈ 0.0152 µg/mL) | 0.03 (≈ 0.0152 µg/mL) | 0.03 (≈ 0.0152 µg/mL) | – | – |
| O=[N+]([O-])c1cc(-c2nnn(Cc3cccc(F)c3)n2)cc([N+](=O)[O-])c1 | 1 (≈ 0.344 µg/mL) | 1 (≈ 0.344 µg/mL) | 1 (≈ 0.344 µg/mL) | 1 (≈ 0.344 µg/mL) | 1 (≈ 0.344 µg/mL) | 1 (≈ 0.344 µg/mL) | 1 (≈ 0.344 µg/mL) | 1 (≈ 0.344 µg/mL) | 1 (≈ 0.344 µg/mL) | 1 (≈ 0.344 µg/mL) | 1 (≈ 0.344 µg/mL) | 1 (≈ 0.344 µg/mL) | 1 (≈ 0.344 µg/mL) | 1 (≈ 0.344 µg/mL) |
| O=[N+]([O-])c1cc(-c2nnn(CSc3nnnn3-c3ccc(Cl)cc3)n2)cc([N+](=O)[O-])c1 | 0.03 (≈ 0.0138 µg/mL) | 0.03 (≈ 0.0138 µg/mL) | 0.03 (≈ 0.0138 µg/mL) | 0.03 (≈ 0.0138 µg/mL) | 0.03 (≈ 0.0138 µg/mL) | 0.03 (≈ 0.0138 µg/mL) | 0.03 (≈ 0.0138 µg/mL) | 0.06 (≈ 0.0276 µg/mL) | 0.03 (≈ 0.0138 µg/mL) | 0.03 (≈ 0.0138 µg/mL) | 0.03 (≈ 0.0138 µg/mL) | 0.06 (≈ 0.0276 µg/mL) | – | – |
| COc1cccc(-n2nnnc2SCn2nnc(-c3cc([N+](=O)[O-])cc([N+](=O)[O-])c3)n2)c1 | 0.03 (≈ 0.0137 µg/mL) | 0.06 (≈ 0.0274 µg/mL) | 0.03 (≈ 0.0137 µg/mL) | 0.03 (≈ 0.0137 µg/mL) | 0.03 (≈ 0.0137 µg/mL) | 0.03 (≈ 0.0137 µg/mL) | 0.03 (≈ 0.0137 µg/mL) | 0.03 (≈ 0.0137 µg/mL) | 0.03 (≈ 0.0137 µg/mL) | 0.03 (≈ 0.0137 µg/mL) | 0.03 (≈ 0.0137 µg/mL) | 0.03 (≈ 0.0137 µg/mL) | – | – |
| O=[N+]([O-])c1cc(-c2nnn(Cc3ccc(F)cc3)n2)cc([N+](=O)[O-])c1 | 1 (≈ 0.344 µg/mL) | 0.5 (≈ 0.172 µg/mL) | 0.5 (≈ 0.172 µg/mL) | 1 (≈ 0.344 µg/mL) | 0.25 (≈ 0.0861 µg/mL) | 0.5 (≈ 0.172 µg/mL) | 0.5 (≈ 0.172 µg/mL) | 1 (≈ 0.344 µg/mL) | 0.5 (≈ 0.172 µg/mL) | 1 (≈ 0.344 µg/mL) | 0.5 (≈ 0.172 µg/mL) | 1 (≈ 0.344 µg/mL) | 0.5 (≈ 0.172 µg/mL) | 0.5 (≈ 0.172 µg/mL) |
| O=[N+]([O-])c1cc(-c2nnn(Cc3ccccc3)n2)cc([N+](=O)[O-])c1 | 1 (≈ 0.326 µg/mL) | 1 (≈ 0.326 µg/mL) | 1 (≈ 0.326 µg/mL) | 1 (≈ 0.326 µg/mL) | 1 (≈ 0.326 µg/mL) | 1 (≈ 0.326 µg/mL) | 1 (≈ 0.326 µg/mL) | 1 (≈ 0.326 µg/mL) | 1 (≈ 0.326 µg/mL) | 1 (≈ 0.326 µg/mL) | 1 (≈ 0.326 µg/mL) | 1 (≈ 0.326 µg/mL) | – | – |
| Cc1ccc(Cn2nnc(-c3cc([N+](=O)[O-])cc([N+](=O)[O-])c3)n2)cc1 | 0.12 (≈ 0.0408 µg/mL) | 0.12 (≈ 0.0408 µg/mL) | 0.12 (≈ 0.0408 µg/mL) | 0.12 (≈ 0.0408 µg/mL) | 0.12 (≈ 0.0408 µg/mL) | 0.12 (≈ 0.0408 µg/mL) | 0.12 (≈ 0.0408 µg/mL) | 0.12 (≈ 0.0408 µg/mL) | 0.12 (≈ 0.0408 µg/mL) | 0.12 (≈ 0.0408 µg/mL) | 0.12 (≈ 0.0408 µg/mL) | 0.25 (≈ 0.0851 µg/mL) | 0.12 (≈ 0.0408 µg/mL) | 0.12 (≈ 0.0408 µg/mL) |
| O=[N+]([O-])c1cc(-c2nnn(CSc3nnnn3-c3ccc(Cl)c(Cl)c3)n2)cc([N+](=O)[O-])c1 | 0.03 (≈ 0.0149 µg/mL) | 0.03 (≈ 0.0149 µg/mL) | 0.03 (≈ 0.0149 µg/mL) | 0.03 (≈ 0.0149 µg/mL) | 0.03 (≈ 0.0149 µg/mL) | 0.03 (≈ 0.0149 µg/mL) | 0.03 (≈ 0.0149 µg/mL) | 0.03 (≈ 0.0149 µg/mL) | 0.03 (≈ 0.0149 µg/mL) | 0.03 (≈ 0.0149 µg/mL) | 0.03 (≈ 0.0149 µg/mL) | 0.03 (≈ 0.0149 µg/mL) | – | – |
| COc1ccc(Cn2nnc(-c3cc([N+](=O)[O-])cc([N+](=O)[O-])c3)n2)cc1 | 0.03 (≈ 0.0107 µg/mL) | 0.03 (≈ 0.0107 µg/mL) | 0.03 (≈ 0.0107 µg/mL) | 0.03 (≈ 0.0107 µg/mL) | 0.03 (≈ 0.0107 µg/mL) | 0.03 (≈ 0.0107 µg/mL) | 0.03 (≈ 0.0107 µg/mL) | 0.06 (≈ 0.0214 µg/mL) | 0.03 (≈ 0.0107 µg/mL) | 0.03 (≈ 0.0107 µg/mL) | 0.03 (≈ 0.0107 µg/mL) | 0.03 (≈ 0.0107 µg/mL) | 0.03 (≈ 0.0107 µg/mL) | 0.03 (≈ 0.0107 µg/mL) |
